Entries after “also recorded” stand apart in the source; their conditions may differ.
Key:
[1] = Solubility of delphinidin chloride in aqueous cyclodextrin solutions; assay type: physicochemical; details: pure water, cyclodextrin concentration 0; excess delphinidin chloride, 30° C., 20 h, dark, 0.22 μm filter
Protocol: In this example, the complexing of delphinidin by different cyclodextrins and the solubility of the complex in aqueous solution are investigated.
Neutral aqueous solutions were prepared, containing 10 wt % of the respective cyclodextrin.
5 ml each of the aqueous cyclodextrin solutions and of pure water were introduced into glass flasks. Then an excess of delphinidin chloride was added.
The suspensions were stirred in the dark at 30° C. for 20 h. This was followed by filtration through a membrane filter with a 0.22 μm pore size.

[2] = Stability tests in aqueous solution (delphinidin content by HPLC); assay type: physicochemical; details: 0.9% NaCl solution, 37° C., dark, start 1.584 mg/ml (complex) or 0.0216 mg/ml (uncomplexed)
Protocol: The delphinidin chloride content of the delphinidin-containing solutions was determined using a reversed-phase HPLC technique similar to that already described above. The following reagents were employed here:
The solutions were prepared at room temperature and then stored in closed vials in the dark at 37° C.
The delphinidin content was determined after 1, 2, 3, and 4 h. The table below reports the content found, as a percentage of the abovementioned starting concentration.

[3] = tested on: Klebsiella pneumoniae ATCC700603; assay: Biofilm formation, static model, crystal violet assay; assay type: cell-based; details: K. pneumoniae, RPMI-1640, 37° C., 48 hours
Protocol: (§1) Klebsiella pneumoniae ATCC700603 biofilm-positive clinical isolate from urine from an ESBL+(Extended Spectrum Beta-Lactamase) hospital patient (reference strain);
The growth and the analysis of the biofilm were determined in a static model by means of the crystal violet assay according to basic protocol 1 in Current Protocols in Microbiology 1B.1.2-1B.1.4 “MICROTITER PLATE BIOFILM ASSAY” [published online August 2011 in Wiley Online Library (wileyonlinelibrary.com) DOI: 10.1002/9780471729259. mc01b01s22]. […]
(§2) With the same experimental setup, the biofilm was analyzed by means of the crystal violet test as described above in section 1, the outcome thereof, after 48 hours of incubation and the crystal violet test, is shown overall in FIG. 8, and in FIGS. 9-13 in each case after measurement of the optical density, processed graphically for the respective delphinidin concentrations in the case of the individual bacterial strains (FIG. 9: P. aeruginosa ATCC9027, FIG. 10: K. pneumoniae ATCC700603, FIG. 11: MRSA2318, FIG. 12: MRSA2855, FIG. 13: MSSA1155).

[4] = tested on: Staphylococcus aureus MRSA2318, MRSA2855, MSSA1155; assay: as above; assay type: cell-based; details: S. aureus (both MSSA and MRSA), RPMI-1640, 37° C., 48 hours
From the text: (§3) Staphylococcus aureus MRSA2318 biofilm-positive clinical isolate from tracheal secretion of 22.04.2009 (Würzburg University Hospital, neurosurgical clinic and polyclinic I, intensive therapy unit); • Staphylococcus aureus MRSA2855 biofilm-positive clinical isolate from blood culture of 22.04.2009 (Würzburg University Hospital, medical clinic and polyclinic I, ITU); • Staphylococcus aureus MSSA1155 biofilm-positive clinical isolate from 27.04.2004 from abdominal cavity scrape (Würzburg University clinic, urology, unit B).
(§4) The growth and the analysis of the biofilm were determined in a static model by means of the crystal violet assay according to basic protocol 1 in Current Protocols in Microbiology 1B.1.2-1B.1.4 “MICROTITER PLATE BIOFILM ASSAY” [published online August 2011 in Wiley Online Library (wileyonlinelibrary.com) DOI: 10.1002/9780471729259. mc01b01s22].
(§5) Investigating the effect of delphinidin on the bacterial growth and the bacterial formation of biofilm took place by means of • a) visual evaluation of bacterial growth (static model), • b) vitality test (scrape on blood agar plates) • c) analysis of the biofilm in a static model by means of the crystal violet assay as described above in section 1.
The control used was sterile RPMI-1640. […]

[5] = tested on: Pseudomonas aeruginosa ATCC9027; assay: as above; assay type: cell-based; details: P. aeruginosa, RPMI-1640, 37° C., 48 hours
Protocol: (§6) The strains selected were as follows: • Pseudomonas aeruginosa ATCC9027, biofilm-positive clinical isolate from an outer ear infection (reference strain);
as §4
as §5, with “1. […]” for “1.”
as §2

[6] = tested on: Staphylococcus aureus MRSA2318, MRSA2855, MSSA1155; assay: Bacterial growth, static model (visual evaluation, vitality test); assay type: cell-based; details: S. aureus (both MSSA and MRSA); RPMI-1640, 37° C., 48 hours
From the text: as §3, §5
(§7) The control used was sterile RPMI-1640. Then delphinidin in solution in RPMI-1640 was added, from a dilution series produced beforehand, and the cell culture dish was incubated at 37° C. for 48 hours, the visual outcome thereof being shown in FIG. 2. The color change from (phenol) red to yellow correlates with the extent of the bacterial growth.
Scrapes of the bacteria from the culture dish are shown in FIG. 3 (P. aeruginosa ATCC9027), 4 (K. pneumoniae ATCC700603), 5 (MRSA2318), 6 (MRSA2855) and 7 (MSSA1155). […]

[7] = tested on: Pseudomonas aeruginosa ATCC9027; assay: as above; assay type: cell-based; details: P. aeruginosa; RPMI-1640, 37° C., 48 hours
From the text: as §6, §5, §7
(§8) Scrapes of the bacteria from the culture dish are shown in FIG. 3 (P. aeruginosa ATCC9027), 4 (K. pneumoniae ATCC700603), 5 (MRSA2318), 6 (MRSA2855) and 7 (MSSA1155). “ST 26.1.11” and “ST 28.1.11” in the case of the scrapes on the agar plates refers to the respective scraping date of the duplicated experiments.

[8] = tested on: Klebsiella pneumoniae ATCC700603; assay: as above; assay type: cell-based; details: K. pneumoniae; RPMI-1640, 37° C., 48 hours
From the text: as §1, §5, §7, §8

Oc1cc(O)c2cc(O)c(-c3cc(O)c(O)c(O)c3)[o+]c2c1.[Cl-] [Delphinidin chloride, delphinidin chloride]
Delphinidin chloride (solubility achievable) [1]: 70 µg/mL

Oc1cc(O)c2cc(O)c(-c3cc(O)c(O)c(O)c3)[o+]c2c1 [Delphinidin]
Delphinidin content as a percentage of the starting concentration ([2]; 0 h): 100%
Delphinidin content as a percentage of the starting concentration ([2]; 1 h): 8.3%
Delphinidin content as a percentage of the starting concentration ([2]; 2 h): 6.5%
Delphinidin content as a percentage of the starting concentration ([2]; 3 h): 5.6%
Delphinidin content as a percentage of the starting concentration ([2]; 4 h): 5.1%
Effect on formation of biofilm [3]: no inhibiting effect; also recorded: appears still to be being stimulated
Effect on formation of biofilm [4]: inhibiting effect
Effect on formation of biofilm [5]: no inhibiting effect
Effect on growth [6]: inhibiting effect
Effect on growth [7]: no inhibiting effect
Effect on growth [8]: no inhibiting effect
